# Results: PMC7515829, “HKDC1 C-terminal based peptides inhibit extranodal natural killer/T-cell lymphoma by modulation of mitochondrial function and EBV suppression” (Leukemia, 2020)
# Ends that are not written are not given here.
# Key:
# [1] = test system: MNCs from ENKTL patients; conditions: read-out: IC50 (µM) ENKTL, half-maximal cell death activity, peptides 0.1–15 µM, 6 h, PI staining, FACS, mean ± SEM, n in cell
# From the text: (§1) We investigated the potential role of HKDC1-based peptides in ENKTL cells that were isolated from the MNCs of ENKTL patients or SNK6 cell line. Three different kinds of HKDC1-based targeting peptides, including the last 15 aa at either the N-terminal (HKN15) or C-terminal (HKC15), or the last eight aa at the C-terminal (HKC8) were selected; four different kinds of cell-penetrating sequences were employed to deliver the HKDC1-based peptides, including Antp (a 16 penetrating residue long sequence from the Drosophila antennapedia-homeodomain), penetration-accelerating segment, TAT (HIV-1 TAT sequence), and Tf (the Tf receptor (TfR) internalization sequence) sequences. All of the aa with the D-configuration (marked as D) were synthesized as retro-inverso peptides. […] We then evaluated the toxic effect of two peptides (including Tf-D-HKC15 and Tf-D-HKC8) on different kinds of primary and cancer cell lines (see details in Table 2). […] We also evaluated the peptide delivery efficiency using ^125I-labeled uptake assay for both Tf-D-HKC8 and Tf-D-HKC15 peptides.
# (§2) Measurement of apoptosis and cell death. Apoptosis was evaluated by TUNEL assay using the In Situ Cell Death Detection Kit™ (Roche). Cells were fixed in 4% paraformaldehyde and labeled with TUNEL reagents. Stained cells were photographed by a fluorescence microscope (11). For cell death analysis, the propidium iodide (PI) staining was performed by addition of 6.25 µg/ml of PI to the cells, and cell death was immediately evaluated by FACS analysis (3).
# [2] = test system: SNK6 cells; conditions: read-out: IC50 (µM) SNK6, half-maximal cell death activity; SNK6 cells; peptides 0.1–15 µM, 6 h; PI staining, FACS; mean ± SEM, n in cell (Table 1)
# From the text: as §1, §2
# [3] = test system: SNK6 cells; test: ROS formation (CM-H2DCFDA); assay type: cell-based, human; conditions: 0.5 µM peptide, 6 h, compared with CTL group, n = 5 (Fig. 3a)
# Experimental: Measurement of ROS generation. Treated cells were seeded in a 24-well plate and incubated with 10μM CM-H2DCFDA (Invitrogen) for 45 min at 37°C, and then the intracellular formation of reactive oxygen species (ROS) was measured at excitation/emission wavelengths of 485/530nm using a FLx800 microplate fluorescence reader (Bio-Tek). The data was normalized as arbitrary units (8, 11).
# [4] = test system: SNK6 cells; test: 3-nitrotyrosine formation (ELISA); assay type: cell-based, human; conditions: 0.5 µM peptide, 6 h, compared with CTL group, n = 5 (Fig. 3b)
# Experimental: Antibodies for β-actin (sc-47778), EBV Ea-D (sc-58121), EBV ZEBRA (BZ1, sc-53904), Ki-67 (sc-101861) and VDAC1 (sc-390996) were obtained from Santa Cruz Biotechnology. Antibodies for HK2 (ab104836), H2AX (ab20669), γH2AX (ab2893) and P-gp (ab129450) were obtained from Abcam. The antibody for HKDC1 (NBP1-82108) was obtained from Novus Biologicals. 3-nitrotyrosine (3-NT) was measured by 3-Nitrotyrosine ELISA Kit (ab116691 from Abcam). Nuclear extracts were prepared using the NE-PER Nuclear and Cytoplasmic Extraction Reagents Kit (Pierce Biotechnology). Protein concentration was measured using the Coomassie Protein Assay Kit (Pierce Biotechnology) per manufacturers’ instructions.
# [5] = test system: SNK6 cells; test: 8-OHdG formation (DNA damage ELISA); assay type: cell-based, human; conditions: 0.5 µM peptide, 6 h, vs CTL, n = 5 (Fig. 3c)
# Experimental: (§3) Measurement of DNA breaks. 8-OHdG formation was measured using an OxiSelect™ Oxidative DNA Damage ELISA Kit (Cat No. STA320, from Cell Biolabs Inc.) per manufacturers’ instructions. The formation of γH2AX was measured from nuclear extracts by western blotting using H2AX as the input control (8).
# [6] = test system: SNK6 cells; test: γH2AX formation (western blot); assay type: cell-based, human; conditions: 0.5 µM peptide, 6 h, vs CTL, n = 5 (Fig. 3d)
# Experimental: as §3
# [7] = test system: EBV; test: EBV viral genomes/cell by qPCR in SNK6 cells; assay type: cell-based; conditions: 0.5 µM peptide, 6 h, vs CTL, n = 4 (Fig. 3i)
# Experimental: Detection of EBV copy number. Genomic DNA was extracted from treated SNK-6 cells or SNK-6 tumor tissue in mice using a QIAamp DNA Mini Kit (Qiagen). The EBV DNA copy number was measured through qPCR using 50ng of total DNA with EBV BMRF1 primers (see Table 1), and the results were normalized using cellular β-actin (primers see Table 1) as an internal control (13, 14). The Namalwa cell line, which contains 2 EBV viral genome copies, was used as a standard to prepare calibration curves for both EBV BMRF1 and β-actin genes, and the EBV viral load was presented as the number of viral genomes per cell (15, 16).
# [8] = test system: SNK6 cells; test: Apoptosis rate by TUNEL assay; assay type: cell-based, human; conditions: 0.5 µM peptide, 6 h, compared with CTL group, n = 5 (Fig. 4h)
# Experimental: as §2
# [9] = test system: SNK6 cells; test: Cell proliferation by thymidine incorporation; assay type: cell-based, human; conditions: 0.5 µM peptide, 6 h, vs CTL, n = 5 (Fig. 5a)
# Experimental: DNA synthesis by [^3H]-thymidine incorporation. Cell proliferation was evaluated as the rate of DNA synthesis by [^3H]-methylthymidine incorporation (17). […] At the end of the treatment, cells were incubated with serum-free media containing ^3H-methylthymidine (0.5 µCi/well) for 2 hours and then washed twice with PBS. Cellular DNA was precipitated using 10% trichloroacetic acid and solubilized with 0.4M NaOH (0.5 ml/well). Incorporation of ^3H-methylthymidine into the DNA was measured in a scintillation counter and was determined as counts per minute (CPM) (8).
# [10] = test system: SNK6 cells; conditions: 0.5 µM peptide, 6 h, vs CTL, n = 3 (Fig. 5g)
# Experimental: Immunostaining. […] The cells were then washed three times and the FITC labeled anti-mouse secondary antibody (1:100) was added for blotting for another 1 hour. After thorough washing, the slides were visualized and photographed, the nuclei of cells were stained with 4’,6-diamidino-2-phenylindole dihydrochloride (DAPI, #D9542, from Sigma), and the positive Ki-67 cells were quantitated.
# [11] = test system: SNK6 xenograft; test: SNK6 xenograft tumor volume; assay type: in vivo, mouse; conditions: nude mice, n = 5
# Experimental: To measure malignant SNK6 xenograft growth, 100 µl of 1 × 10^5 SNK6 cells in PBS were mixed with 100 µl growth factor-reduced basement membrane matrix (Matrigel™, BD Biosciences) resulting in 200 µl of solution that was injected subcutaneously along the mouse flank at each intended tumor site. Tumor size was measured using a digital caliper and volume was calculated, and mice were randomly divided into four groups (n = 9 per group) when the tumor volume reached 50–100 mm^3 on day ~18 after tumor inoculation and given treatment as follows: Group 1 (control (CTL)) was intratumorally injected with HBSS buffer (5.33 mM KCl, 0.44 mM KH2PO4, 138 mM NaCl, 4 mM NaHCO3, 0.3 mM Na2HPO4, and 5.6 mM glucose, pH 7.3) containing 0.05% DMSO; Group 2 (Tf-D-HKN15) received HBSS buffer containing 0.05% DMSO with 50 µM Tf-D-HKN15 peptides; Group 3 (Tf-D-HKC15) received HBSS buffer containing 0.05% DMSO with 50 µM Tf-D-HKC15 peptides; Group 4 (Tf-D-HKC8) received HBSS buffer containing 0.05% DMSO with 50 µM Tf-D-HKC8 peptides. The xenografts were injected (two points, 20 µl per tumor) every 2 days. Beginning on the day of inoculation, mouse weight and tumor volume were monitored every 2 days. Mice were monitored for changes in body weight and sacrificed when values fell below 20% of their initial weight; the survival curve was calculated and the final tumor tissues were isolated for biomedical analysis.
# To measure the malignant SNK6 xenograft growth, the 100µl of 1x10^5 SNK6 cells in PBS were mixed with 100µl growth factor-reduced basement membrane matrix (Matrigel™, BD Biosciences) resulting in 200µl of solution that was injected subcutaneously along the mouse flank at each intended tumor site. Tumor size was measured using a digital caliper and volume was calculated, and mice were randomly divided into 4 groups (n=9 per group) when the tumor volume reached 50-100 mm^3 on day ~18 after tumor inoculation: Group 1 (CTL) was intratumorally injected with HBSS buffer (5.33 mM KCl, 0.44 mM KH2PO4, 138 mM NaCl, 4 mM NaHCO3, 0.3 mM Na2HPO4, and 5.6 mM glucose, pH 7.3) containing 0.05% DMSO; Group 2 (Tf-D-HKN15) received HBSS buffer containing 0.05% DMSO with 50 µM Tf-D-HKN15 peptides; Group 3 (Tf-D-HKC15) received HBSS buffer containing 0.05% DMSO with 50 µM Tf-D-HKC15 peptides; Group 4 (Tf-D-HKC8) received HBSS buffer containing 0.05% DMSO with 50 µM Tf-D-HKC8 peptides. The xenografts were injected (two points, 20 µL per tumor) every two days. Beginning on the day of inoculation, mouse weight and tumor volume were monitored every 2 days. Mice were monitored for changes in body weight and sacrificed when values fell below 20% of their initial weight, the survival curve was calculated and the final tumor tissues were isolated for biomedical analysis.
# [12] = test system: SNK6 xenograft; test: Mouse survival, Kaplan–Meier analysis; assay type: in vivo; conditions: nude mice, intratumoral 50 µM peptide every 2 days from day ~18, compared with CTL group, n = 9
# Experimental: Statistical analysis. The data was given as mean ± SEM; all of the experiments were performed at least in quadruplicate unless otherwise indicated. One-way ANOVA followed by the Bonferroni post hoc test was used to determine statistical significance of different groups. The mouse survival curve was determined through Kaplan-Meier survival analysis using SPSS 22 software, and a P value < 0.05 was considered significant (8).
# [13] = molecular target: HKDC1/VDAC1 (Homo sapiens, UniProt P21796); test: IP/WB association of HKDC1 with VDAC1 in SNK6 cells; assay type: cell-based; parameters: endogenous in cells; host or cells: SNK6; conditions: 0.5 µM peptide, 6 h, vs CTL, n = 5 (Fig. 4c, d)
# Experimental: Immunoprecipitation (IP) and Western Blotting (WB). Cell lysates were pre-cleared by pre-immune IgG plus Protein A agarose beads for 2 hours, and the supernatants were immunoprecipitated by the indicated antibodies and a 50% slurry of Protein A Agarose beads overnight at 4 °C (9). After washing with buffer containing 50 mM Tris, pH 7.5, 150 mM NaCl, 1% NP-40, and 0.5% deoxycholate with protease inhibitors, proteins were released, separated on 10% SDS-PAGE gels, blotted by primary antibodies, and then simultaneously incubated with the differentially labeled species-specific secondary antibodies, anti-RABBIT IRDye™ 800CW (green) and anti-MOUSE (or goat) ALEXA680 (red). Membranes were scanned and quantitated by the ODYSSEY Infrared Imaging System (LI-COR, NE) (10).
# HKDC1/VDAC1, sequence (P21796 2-283 limits assumed): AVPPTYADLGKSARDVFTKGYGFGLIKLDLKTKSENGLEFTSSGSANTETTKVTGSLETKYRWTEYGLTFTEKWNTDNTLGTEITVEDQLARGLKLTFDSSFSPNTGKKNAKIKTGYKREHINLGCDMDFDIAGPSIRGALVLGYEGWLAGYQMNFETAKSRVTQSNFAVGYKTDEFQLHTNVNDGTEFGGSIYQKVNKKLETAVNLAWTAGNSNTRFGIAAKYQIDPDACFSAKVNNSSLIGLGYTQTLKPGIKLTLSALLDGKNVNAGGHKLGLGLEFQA
substance,measurement,setting,value
GKPILFFLQQAQKEN [PAS-HKC8],IC50,[1],1.4 ± 0.4 µM
same,IC50,[2],1.4 ± 0.3 µM
GYGRKKRRQRRRGLQQAQKEN [TAT-HKC8],IC50,[1],1.9 ± 0.4 µM
same,IC50,[2],2 ± 0.4 µM
"HAIYPRH-EILNKEKK [Tf-D-Scram, reference compound]",IC50,[1],> 15 µM
same,IC50,[2],> 15 µM
HAIYPRH-MFAVHLMAFYFSKLK [Tf-D-HKN15],IC50,[1],> 15 µM
same,IC50,[2],> 15 µM
same,ROS formation,[3],no effect
same,3-nitrotyrosine formation,[4],no effect
same,8-OHdG formation,[5],no effect
same,γH2AX formation,[6],no effect
same,EBV genome copies,[7],no effect
same,apoptosis rate increase,[8],no effect
same,thymidine incorporation,[9],no effect
same,cell proliferation by quantitation of Ki-67 positive cells,[10],no effect
same,tumor volumes on day 36,"[11]; intratumoral 50 µM peptide every 2 days from day ~18, day 36, vs CTL",no effect
same,tumor volumes on day 48,"[11]; intratumoral 50 µM peptide every 2 days from day ~18, day 48, vs CTL",no effect
same,mouse survival,[12],little effect
same,association of HKDC1 with VDAC1,[13],no effect
HAIYPRHITAVAKRLQQAQKEN [Tf-HKC15],IC50,[1],1.2 ± 0.4 µM
same,IC50,[2],1.4 ± 0.3 µM
GYGRKKRRQRRRG-LQQAQKEN [TAT-D-HKC8],IC50,[1],1.5 ± 0.7 µM
same,IC50,[2],1.7 ± 0.5 µM
GKPILFF-LQQAQKEN [PAS-D-HKC8],IC50,[1],1.1 ± 0.3 µM
same,IC50,[2],1.3 ± 0.3 µM
"HAIYPRHEILNKEKK [Tf-Scram, reference compound]",IC50,[1],> 15 µM
same,IC50,[2],> 15 µM
RQIKIWFQNRRMKWKKLQQAQKEN [Antp-HKC8],IC50,[1],1.3 ± 0.4 µM
same,IC50,[2],1.3 ± 0.3 µM
RQIKIWFQNRRMKWKK-LQQAQKEN [Antp-D-HKC8],IC50,[1],1 ± 0.3 µM
same,IC50,[2],1.2 ± 0.4 µM
HAIYPRHMFAVHLMAFYFSKLK [Tf-HKN15],IC50,[1],> 15 µM
same,IC50,[2],> 15 µM
HAIYPRHLQQAQKEN [Tf-HKC8],IC50,[1],0.5 ± 0.2 µM
same,IC50,[2],0.7 ± 0.2 µM
